How the values were obtained:
Conditions in all cases: incubation time: 72 h
MDA-MB-453 [1] = assay: normalised response (% of control), CellTox Green; higher = less cell death (100 = DMSO, 0 = benzethonium chloride kill control)
Method in brief: (§1)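 Breast cancer cell lines, seeded at 20 µl suspension per well, were incubated for 72 h in 384-well plates containing compound at 5 concentrations. These concentrations rose in 10-fold steps over a 10,000-fold range set for each compound. CellTox Green fluorescence (485/520 nm) was read, then CellTiter-Glo luminescence after 10 min at room temperature, and each plate was normalised to 0.1 % DMSO (100) and a positive kill control (0). Values are normalised signals, each at one concentration.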

MDA-MB-468 [2] = assay: as above
Method in brief: as §1

DU-4475 [3] = assay: as above
Method in brief: as §1

MDA-MB-436 [4] = assay: as above
Method in brief: as §1

BT-549 [5] = assay: as above
Method in brief: as §1

CAL-148 [6] = assay: as above
Method in brief: as §1

Hs578T [7] = assay: as above
Method in brief: as §1

BT-474 [8] = assay: as above
Method in brief: as §1

MFM-223 [9] = assay: as above
Method in brief: as §1

MCF-10A [10] = assay: as above
Method in brief: as §1

MDA-MB-231 [11] = assay: as above
Method in brief: as §1

CAL-51 [12] = assay: as above
Method in brief: as §1

CAL-120 [13] = assay: as above
Method in brief: as §1

HCC1599 [14] = assay: as above
Method in brief: as §1

CAL-85-1 [15] = assay: as above
Method in brief: as §1

MDA-MB-453 [16] = assay: normalised response (% of control), CellTiter-Glo; higher = more viable cells (100 = DMSO, 0 = benzethonium chloride kill control)
Method in brief: as §1

MDA-MB-468 [17] = assay: as above
Method in brief: as §1

DU-4475 [18] = assay: as above
Method in brief: as §1

MDA-MB-436 [19] = assay: as above
Method in brief: as §1

HCC1143 [20] = assay: as above
Method in brief: as §1

BT-549 [21] = assay: as above
Method in brief: as §1

HCC1937 [22] = assay: as above
Method in brief: as §1

HDQ-P1 [23] = assay: as above
Method in brief: as §1

CAL-148 [24] = assay: as above
Method in brief: as §1

Hs578T [25] = assay: as above
Method in brief: as §1

BT-474 [26] = assay: as above
Method in brief: as §1

MFM-223 [27] = assay: as above
Method in brief: as §1

MCF-10A [28] = assay: as above
Method in brief: as §1

MDA-MB-231 [29] = assay: as above
Method in brief: as §1

CAL-51 [30] = assay: as above
Method in brief: as §1

CAL-120 [31] = assay: as above
Method in brief: as §1

SK-BR-3 = assay: as above
Method in brief: as §1

HCC1599 [32] = assay: as above
Method in brief: as §1

CAL-85-1 [33] = assay: as above
Method in brief: as §1

HCC1143 [34] = assay: normalised response (% of control), CellTox Green; higher = less cell death (100 = DMSO, 0 = benzethonium chloride kill control)
Method in brief: as §1

HDQ-P1 [35] = assay: as above
Method in brief: as §1

HCC1937 [36] = assay: as above
Method in brief: as §1

Row | Structure (SMILES) | normalised response (MDA-MB-453 [1]) [%] | normalised response (MDA-MB-468 [2]) [%] | normalised response (DU-4475 [3]) [%] | normalised response (MDA-MB-436 [4]) [%] | normalised response (BT-549 [5]) [%] | normalised response (CAL-148 [6]) [%] | normalised response (Hs578T [7]) [%] | normalised response (BT-474 [8]) [%] | normalised response (MFM-223 [9]) [%] | normalised response (MCF-10A [10]) [%] | normalised response (MDA-MB-231 [11]) [%] | normalised response (CAL-51 [12]) [%] | normalised response (CAL-120 [13]) [%] | normalised response (HCC1599 [14]) [%] | normalised response (CAL-85-1 [15]) [%] | normalised response (MDA-MB-453 [16]) [%] | normalised response (MDA-MB-468 [17]) [%] | normalised response (DU-4475 [18]) [%] | normalised response (MDA-MB-436 [19]) [%] | normalised response (HCC1143 [20]) [%] | normalised response (BT-549 [21]) [%] | normalised response (HCC1937 [22]) [%] | normalised response (HDQ-P1 [23]) [%] | normalised response (CAL-148 [24]) [%] | normalised response (Hs578T [25]) [%] | normalised response (BT-474 [26]) [%] | normalised response (MFM-223 [27]) [%] | normalised response (MCF-10A [28]) [%] | normalised response (MDA-MB-231 [29]) [%] | normalised response (CAL-51 [30]) [%] | normalised response (CAL-120 [31]) [%] | normalised response (SK-BR-3) [%] | normalised response (HCC1599 [32]) [%] | normalised response (CAL-85-1 [33]) [%] | normalised response (HCC1143 [34]) [%] | normalised response (HDQ-P1 [35]) [%] | normalised response (HCC1937 [36]) [%]
1 | CC(C)(C)Cn1c(N)nc2ccc(-c3[nH]c(C(C)(C)C)nc3-c3ccc(F)cc3)nc21 (1000 nM) | 101 | 113 | 105 | 78.8 | 111 | 99.9 | 80.6 | 101 | 99.5 | 77.7 | 110 | 94 | 81.1 | 84.3 | 90.7 | 92.8 | 93.4 | 94.8 | 102 | 98 | 93.7 | 93.6 | 94.6 | 93.1 | 97.7 | 101 | 97.9 | 89.7 | 100 | 103 | 96.6 | 97.7 | 111 | 104 | – | – | –
2 | Cn1cc(C[C@@H](N)C(=O)O)c2ccccc21 [1-methyl-D-tryptophan] (500 nM) | 103 | 143 | 101 | 88.9 | – | 91.4 | 66.7 | 99.3 | 84.3 | 113 | 95.6 | 95.5 | 99.3 | 85.2 | 98.8 | 105 | 101 | 94.4 | 101 | 94.8 | 105 | 99.3 | 107 | 89.7 | 115 | 97.6 | 92.7 | 104 | 96.6 | 81.3 | 105 | 92.7 | 115 | 100 | 94.1 | 107 | –
3 | CC[C@H](CC#N)OC(=O)N[C@@H](C)c1cccc(NC(=O)Nc2ccc(-c3cnco3)c(OC)c2)c1 [AVN944] (1000 nM) | 90.3 | 131 | 88.2 | 74 | 127 | -21.7 | 32 | 86.3 | 44.7 | 112 | 81.8 | 63.5 | 99.9 | 85 | 97 | 84.4 | 37.5 | 29.2 | 42.7 | 42.3 | 36.3 | 52.7 | 46.1 | 34.3 | 44.4 | 58.7 | 71.3 | 58 | 53.5 | 24.1 | 59.9 | 51.3 | 48.1 | 40.8 | 56.6 | 98.8 | 76.8
4 | CCc1cnn2c(NCc3ccc[n+]([O-])c3)cc(N3CCCC[C@H]3CCO)nc12 [Dinaciclib] (100 nM) | 100 | -14.9 | 96.3 | 105 | 53.8 | 50.9 | 38 | 71 | 30.3 | 65 | -7.86 | 50.7 | 87.7 | 71.3 | 21.7 | 15.5 | 9.07 | 18.6 | 15.8 | 18.8 | 12.7 | 27.6 | 22.3 | 52.9 | 12.9 | 20.7 | 14.8 | 28.7 | 5.94 | 10.2 | 36.6 | 4.18 | 10.5 | 8.18 | 88.7 | 63.2 | 87.2
5 | COc1cc(Nc2ncc(F)c(Nc3ccc4c(n3)N(COP(=O)(O)O)C(=O)C(C)(C)O4)n2)cc(OC)c1OC [Fostamatinib] (250 nM) | 107 | 57 | 100 | 86.6 | 82.7 | 93.1 | 97.7 | 97.8 | 101 | 102 | 53.7 | 92.2 | 101 | 92.7 | 106 | 93.7 | 90.5 | 94.8 | 105 | 95 | 93.7 | 94.9 | 103 | 91.4 | 91.3 | 88.2 | 63.1 | 84 | 85 | 105 | 86.9 | 98.1 | 110 | 96.1 | 76.3 | 109 | 125
6 | CC(C)NC[C@@H](C(=O)N1CCN(c2ncnc3c2[C@H](C)C[C@H]3O)CC1)c1ccc(Cl)cc1 [GDC-0068] (1000 nM) | 97.8 | 95.5 | 102 | 113 | 90.5 | 34.3 | 101 | 74.3 | 86.1 | 74.4 | 106 | 89.6 | 99.3 | 93.2 | 113 | 53.6 | 60.9 | 91.9 | 89.1 | 89.3 | 70.2 | 79 | 65.5 | 19 | 85.4 | 89.5 | 31.7 | 82.8 | 92.4 | 60.5 | 81.4 | 67.2 | 103 | 85.8 | 121 | 105 | 115
7 | CCCc1cc(C)[nH]c(=O)c1CNC(=O)c1cc(-c2ccnc(N3CCN(C)CC3)c2)cc2c1cnn2C(C)C [GSK343] (1000 nM) | 97.6 | 183 | 94.6 | 79.6 | 107 | 98.2 | 73.9 | 97.9 | – | 107 | 106 | 82.5 | 96.1 | 91.5 | 98 | 80.4 | 87 | 89.5 | 99.1 | 95.3 | 92.9 | 103 | 103 | 77.9 | 101 | 103 | 90.7 | 96.4 | 97.3 | 73.8 | 95 | 83.6 | 95.9 | 101 | 98.9 | 72.7 | 121
8 | COc1cc2c(cc1-c1c(C)noc1C)ncc1[nH]c(=O)n([C@H](C)c3ccccn3)c12 [I-BET151] (1000 nM) | 106 | 117 | 94.7 | 99.7 | 93.6 | – | 79.2 | 97.2 | 101 | 109 | 123 | 89.2 | 91.8 | 97.9 | 83.8 | 68.4 | 86.3 | 82.9 | 94.7 | 87.3 | 57.5 | 79.5 | 82.9 | 101 | 52.6 | 77.8 | 72 | 74 | 85.7 | 87.4 | 71.2 | 82 | 97.3 | 57.4 | 105 | – | 42.4
9 | CN1CCc2c(c3ccccc3n2Cc2ccc(C(=O)NO)cc2)C1 [Tubastatin A] (1000 nM) | 105 | 131 | 105 | 106 | 99.6 | 104 | 81.9 | 99.2 | 101 | 110 | 98.7 | 91.3 | 102 | 93.7 | 111 | 92.4 | 90.8 | 96.5 | 97.5 | 94.3 | 101 | 92.9 | 87.9 | 103 | 101 | 91.7 | 96.9 | 112 | 91.7 | 53.5 | 93.3 | 100 | 104 | 94.7 | – | 94.3 | 98
